From US20230346954A1, “N-1 BRANCHED IMIDAZOQUINOLINES, CONJUGATES THEREOF, AND METHODS” (3M INNOVATIVE PROPERTIES COMPANY, priority 2020, published 2023) come the findings set out here.

Common to all, as to assay type: cell-based
The test system of test [1] is Human peripheral blood mononuclear cells (PBMC). Kind of test: Cytokine induction in human cells (PBMC). The note with it: 21-24 h, lowest concentration giving at least 2x negative control; for MEC to Induce Cytokine: IFN-alpha: ELISA; for MEC to Induce Cytokine: IFN-gamma / MEC to Induce Cytokine: TNF-alpha: multiplex bead assay. The protocol:
Whole blood was obtained from healthy human donors and collected by venipuncture into vacutainer tubes or syringes containing EDTA. Human peripheral blood mononuclear cells (PBMC) were purified from the whole blood by density gradient centrifugation. Histopaque 1077 (15 mL, Sigma, St. Louis, MO) was transferred to 6×50 mL sterile polypropylene conical tubes. The Histopaque was overlayed with 15-25 mL of blood diluted 1:2 in Hank's Balanced Salts Solution (HBSS) (Gibco, Life Technologies, Grand Island, NY). The tubes were then centrifuged at 1370 revolutions per minute (rpm) for 30 min at 20° C., with no brake (400×g, GH 3.8A Rotor).
The interface (buffy coat) containing the PBMC was collected and placed in a new sterile 50 mL conical polypropylene centrifuge tube. The PBMC were mixed with an equal volume of HBSS (about 20 mL from the interface and about 20 mL of HBSS), and then centrifuged at 1090 rpm, 10 min, 20° C., with brake (270×g, GH 3.8A Rotor). After completing centrifugation, the cells were resuspended in 2-3 mL ACK Red blood cell lysis buffer (ammonium chloride potassium solution, Gibco, Life Technologies) and incubated for 2-5 min at 20° C. Next, HBSS (40 mL) was added to the cells, and the sample was centrifuged at 270×g for 10 min at 20° C. The supernatant was decanted, and the cell pellet was resuspended in 5 mL AIM V Medium (Gibco, Life Technologies). Cell aggregates and debris were removed by filtering the cell solution through a BD Falcon 70 micron nylon cell strainer (BD Biosciences, San Jose, CA).
The number of viable cells was determined by counting with a Miltenyi FACS instrument (Miltenyi Biotec Inc., San Diego, CA) or by using a hemacytometer. For determining cell viability with a hemacytometer, the cells were diluted 1/10 in 0.4% trypan blue and HBSS (specifically, 50 microliter of trypan blue+40 microliter of HBSS+10 microliter of cell solution were added to a microfuge tube and mixed). Ten microliters of the diluted cells were then applied to the hemacytometer, and the number of viable PBMC were determined by microscopy.
The PBMC sample was then resuspended in 96-well plates at a concentration of 8×10^5 cells/well in 0.1 mL of AIM-V medium. Each compound was solubilized in dimethyl sulfoxide (DMSO) to create a 3 mM stock solution. The stock solution was then further diluted with AIM-V medium to prepare the serial dilutions. The diluted compound (100 microliters) was then transferred to the PBMCs to produce testing sets with final compound concentrations of 30, 10, 3.3, 1.1, 0.37, 0.12, 0.04, 0.01 micromolar. The plates also had both positive and negative controls. The negative control wells contained only AIM-V medium with no example compound. The positive control wells contained a control set of imiquimod serially diluted to concentrations of 30, 10, 3.3, 1.1, 0.37, 0.12, 0.04, 0.01 micromolar. The concentrations used in the control set were selected to match the concentrations used in the testing set. The plates were then cultured at 37° C./5% CO2 for 21-24 h. Cell-free supernatants were harvested by centrifuging the 96-well plates at 2100 rpm, 23° C. for 10 min. Approximately 160 microliters of the supernatant was then stored in a NUNC 96-well plate, covered with the compression cap and stored at −80° C. until the cytokine analysis was done.
IFN-alpha cytokine levels (picograms/mL) were measured by ELISA (human IFN-alpha, pan specific, Mabtech, Cincinnati, OH). IFN-gamma and TNF-alpha levels (picograms/mL) were measured by multiplex bead assay (magnetic beads, R & D Systems, Minneapolis, MN) according to the manufacturer's instructions.
Specifically, the minimum effective concentration of each compound (micromolar) was determined as the lowest concentration of the compound that induced a measured cytokine response at a level ([…]) that was at least 2× greater than that observed with the negative control wells.

The next test concerns the target T1, human TLR7 (Homo sapiens, UniProt Q9NYK1).
T1 construct: host or cells: HEK293 (HEK-BLUE-hTLR7)
T1 sequence (Q9NYK1 27-1049): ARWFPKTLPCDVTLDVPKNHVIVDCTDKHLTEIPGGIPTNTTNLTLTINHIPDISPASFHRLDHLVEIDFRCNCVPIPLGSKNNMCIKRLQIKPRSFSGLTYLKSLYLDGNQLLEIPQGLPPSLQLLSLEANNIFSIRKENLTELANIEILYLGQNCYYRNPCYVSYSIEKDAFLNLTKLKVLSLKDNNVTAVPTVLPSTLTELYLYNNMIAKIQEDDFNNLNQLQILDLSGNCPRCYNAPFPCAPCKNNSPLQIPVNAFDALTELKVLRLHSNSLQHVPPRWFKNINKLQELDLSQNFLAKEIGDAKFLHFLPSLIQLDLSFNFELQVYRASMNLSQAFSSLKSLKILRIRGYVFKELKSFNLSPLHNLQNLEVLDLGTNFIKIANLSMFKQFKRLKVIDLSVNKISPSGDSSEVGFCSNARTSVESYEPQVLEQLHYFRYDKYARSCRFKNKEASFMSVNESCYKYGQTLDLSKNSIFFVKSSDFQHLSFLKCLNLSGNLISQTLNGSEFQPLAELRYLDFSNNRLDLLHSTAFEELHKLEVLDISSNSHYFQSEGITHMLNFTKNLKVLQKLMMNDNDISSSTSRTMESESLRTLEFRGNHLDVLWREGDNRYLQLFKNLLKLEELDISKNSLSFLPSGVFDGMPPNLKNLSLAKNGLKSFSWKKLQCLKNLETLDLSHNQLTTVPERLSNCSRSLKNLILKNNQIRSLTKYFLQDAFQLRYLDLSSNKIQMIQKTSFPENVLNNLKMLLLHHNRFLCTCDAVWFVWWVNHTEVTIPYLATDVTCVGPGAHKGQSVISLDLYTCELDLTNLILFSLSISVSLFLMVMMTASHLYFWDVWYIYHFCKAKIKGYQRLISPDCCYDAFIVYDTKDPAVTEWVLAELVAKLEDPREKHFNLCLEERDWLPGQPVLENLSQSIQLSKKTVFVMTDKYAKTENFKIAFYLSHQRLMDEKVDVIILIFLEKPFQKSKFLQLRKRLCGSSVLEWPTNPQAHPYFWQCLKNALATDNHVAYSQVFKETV
Kind of test: TLR activation, HEK-BLUE-hTLR7 SEAP reporter cells. The note with it: HEK-BLUE-hTLR7, 16-20 h; SEAP response at least 2x vehicle control. As for the experimental part: (§1) HEK-BLUE-hTLR7 or hTLR8 reporter cells were obtained from InvivoGen, San Diego, CA. According to the manufacturer's description, these reporter cells were prepared by co-transfection of HEK293 cells with an inducible secreted embryonic alkaline phosphatase (SEAP) reporter gene and either the human TLR7 or TLR8 gene. The SEAP reporter gene was placed under the control of an IFN-β minimal promoter fused to five NF-κB and AP-1-binding sites. In the presence of a TLR ligand, activation of NF-κB and AP-1 occurs, resulting in a corresponding increase in SEAP levels. […]
(§2) For each compound, hTLR7, hTLR8, and their respective null control HEK cells were screened. […] Cell culture supernatants containing the SEAP reporter were collected after an incubation period of 16-20 h in a cell culture incubator (37° C. and 5% CO2), and either analyzed immediately or stored at −80° C. SEAP levels were measured using the colorimetric enzyme assay (QUANTI-BLUE (InvivoGen) according to manufacturer's instructions.
(§3) Specifically, the minimum effective concentration of each compound (micromolar) was determined as the lowest concentration of the compound that produced a SEAP expression response at least 2× greater than that observed with the vehicle control wells.

The target in another test is T2, human TLR8 (Homo sapiens, UniProt Q9NR97).
T2 construct: host or cells: HEK293 (HEK-BLUE-hTLR8)
T2 sequence (Q9NR97 27-1041): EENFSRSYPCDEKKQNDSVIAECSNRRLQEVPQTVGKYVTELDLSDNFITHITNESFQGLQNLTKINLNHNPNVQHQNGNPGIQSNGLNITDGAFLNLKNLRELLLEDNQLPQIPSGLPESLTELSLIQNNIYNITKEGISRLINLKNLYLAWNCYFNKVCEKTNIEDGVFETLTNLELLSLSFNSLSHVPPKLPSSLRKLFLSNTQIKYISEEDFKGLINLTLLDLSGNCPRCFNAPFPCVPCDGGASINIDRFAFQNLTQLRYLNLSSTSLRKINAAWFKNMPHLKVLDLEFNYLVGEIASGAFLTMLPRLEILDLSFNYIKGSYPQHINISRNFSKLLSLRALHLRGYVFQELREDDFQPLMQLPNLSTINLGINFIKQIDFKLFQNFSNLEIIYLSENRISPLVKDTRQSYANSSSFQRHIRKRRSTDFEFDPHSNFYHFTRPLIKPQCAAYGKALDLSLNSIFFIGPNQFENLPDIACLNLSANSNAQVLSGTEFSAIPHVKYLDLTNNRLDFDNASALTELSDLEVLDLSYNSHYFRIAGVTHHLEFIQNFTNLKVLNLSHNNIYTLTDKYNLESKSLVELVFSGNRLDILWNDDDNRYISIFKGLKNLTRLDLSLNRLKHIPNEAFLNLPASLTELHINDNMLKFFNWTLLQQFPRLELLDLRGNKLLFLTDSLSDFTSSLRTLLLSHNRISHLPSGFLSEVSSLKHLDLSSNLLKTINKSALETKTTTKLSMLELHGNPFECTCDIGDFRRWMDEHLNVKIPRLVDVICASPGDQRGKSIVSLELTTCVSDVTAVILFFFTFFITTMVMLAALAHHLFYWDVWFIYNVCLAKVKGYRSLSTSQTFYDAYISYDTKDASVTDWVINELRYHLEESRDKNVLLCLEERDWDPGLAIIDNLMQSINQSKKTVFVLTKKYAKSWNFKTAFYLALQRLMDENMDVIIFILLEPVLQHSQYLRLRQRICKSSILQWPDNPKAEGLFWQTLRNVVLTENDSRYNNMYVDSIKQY
Kind of test: TLR activation, HEK-BLUE-hTLR8 SEAP reporter cells. To be noted: HEK-BLUE-hTLR8, 16-20 h; SEAP response at least 2x vehicle control. As for the experimental part:
as §1, §2, §3

As to `CCOC[C@H](Cc1ccc(OCCN)cc1)n1cnc2c(N)nc3ccccc3c21` [Example 2, (S)-1-(1-(4-(2-aminoethoxy)phenyl)-3-ethoxypropan-2-yl)-1H-imidazo[4,5-c]quinolin-4-amine], in test [1], the “MEC to Induce Cytokine: IFN-alpha” value was at most 0.01 µM, the “MEC to Induce Cytokine: IFN-gamma” value is at most 0.01 µM and the “MEC to Induce Cytokine: TNF-alpha” value was at most 0.01 µM. The “MEC to Produce TLR Activation: TLR 7” value on human TLR7 is at most 0.01 µM. Besides, the “MEC to Produce TLR Activation: TLR 8” value on human TLR8 turned out to be 1.1 µM.
`CCOC[C@H](Cc1ccc(OCCO)cc1)n1cnc2c(N)nc3ccccc3c21` [Example 1, (S)-2-(4-(2-(4-amino-1H-imidazo[4,5-c]quinolin-1-yl)-3-ethoxypropyl)phenoxy)ethan-1-ol]: in test [1], the “MEC to Induce Cytokine: IFN-alpha” value is at most 0.01 µM, the “MEC to Induce Cytokine: IFN-gamma” value is at most 0.01 µM and the “MEC to Induce Cytokine: TNF-alpha” value is at most 0.01 µM. The “MEC to Produce TLR Activation: TLR 7” value on human TLR7 was at most 0.01 µM. Besides, the “MEC to Produce TLR Activation: TLR 8” value on human TLR8 turned out to be 1.1 µM.
